Assay results from patent publication US10179148B2, “Keratolytic composition with anti-allergic anti-inflammatory properties” (priority 2003, dated 2019).

Tested on: psoriasis patients
Assay: topical testing of cleansing/topical compositions on psoriasis patients
Format: in vivo, human
Settings: in cleansing liquid along with gentle surfactants sodium laureth sulfate and ammonium laureth sulfate; psoriasis effected patients; 5 patients
Text: Most of the cleansing agents contain sodium chloride and/or ammonium chloride and/or potassium chloride.
This invention is lead by desire for developing a new and innovative treatment, which can be used in the longer periods of time without side effect associated with other products. The Topical Composition given in the example being used for more than 6 months and also tested on other psoriasis patients with encouraging results.
Though the exact mechanism of action of quaternary ammonium compounds, such as ammonium chloride, and vanilla is not fully understood, actual testing on psoriasis patients have shown encouraging results without side effects associated with steroids and other presently available psoriasis topical applications.

[Cl-].[Na+] [sodium chloride]
keratolytic properties (removing scales): not having keratolytic properties

Cl.N [ammonium chloride]
keratolytic properties (removing scales): showing keratolytic properties by removing scales
